Experimental data as given in patent publication US20250051327A1, “MALT-1 MODULATORS” (EXSCIENTIA AI LIMITED, priority 2020, published 2025).

Assays:
[1] = molecular target: Recombinant human MALT-1 (amino acids 340-824) (Homo sapiens (Human), UniProt Q9UDY8); assay: MALT-1 inhibition assay (fluorogenic substrate Ac-LRSR-Rh110-DP); format: biochemical; settings: recombinant human MALT-1, substrate Ac-LRSR-Rh110-DP
In short: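 MALT-1 at 3 nM final was reacted with 10 μM Ac-LRSR-Rh110-DP, with substrate addition starting the reaction. Incubation ran 60 minutes at 25° C in the dark. Percent inhibition from fluorescence across doses was fitted to a 4-parameter logistic to give IC50.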

[2] = tested on: IL-2 secretion by human effector memory T cells (TEM); assay: Effector memory T cells IL-2 release assay; format: cell-based; settings: T-cell; human CD4+ effector memory T cells, CD3/CD28 bead stimulation, 24 h; read-out: CD4TC IL2 IC50
In short: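 Human CD4+ effector memory T cells from healthy-donor buffy coats were stimulated with anti-CD3/CD28 Dynabeads and exposed to 10 semi-log compound doses (0.1% DMSO) for 24 h at 37 °C. Supernatant IL-2 was measured by HTRF, and IC50 came from a 4-parameter logistic fit to maximal IL-2. Viability was checked by flow cytometry.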

Recombinant human MALT-1 (amino acids 340-824), sequence (Q9UDY8 340-824): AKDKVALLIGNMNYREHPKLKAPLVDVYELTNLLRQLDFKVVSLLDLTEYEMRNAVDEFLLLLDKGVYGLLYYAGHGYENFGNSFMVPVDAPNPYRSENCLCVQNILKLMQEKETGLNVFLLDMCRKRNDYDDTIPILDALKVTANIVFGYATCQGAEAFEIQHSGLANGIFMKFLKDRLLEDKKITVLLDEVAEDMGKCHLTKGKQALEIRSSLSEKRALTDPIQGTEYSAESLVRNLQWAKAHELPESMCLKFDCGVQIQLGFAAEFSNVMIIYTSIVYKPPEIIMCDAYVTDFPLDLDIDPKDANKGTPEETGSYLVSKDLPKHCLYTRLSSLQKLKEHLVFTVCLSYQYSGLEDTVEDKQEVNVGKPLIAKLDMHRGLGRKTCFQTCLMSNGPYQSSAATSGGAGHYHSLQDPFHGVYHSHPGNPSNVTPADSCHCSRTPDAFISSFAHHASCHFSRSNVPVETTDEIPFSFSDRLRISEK

IC50 [1] [nM]	IC50 [2] [nM]	Compound
61	104	CN(C(=O)[C@H]1C[C@@H](S(C)(=O)=O)C1)[C@@H](c1ccc(N2CCCc3c2cnc2cc(Cl)nn32)cc1)C(F)(F)F [CPD0073502, cis-N-[(1S)-1-(4-{4-chloro-2,3,7,10-tetraazatricyclo[7.4.0.0^2,6]trideca-1(9),3,5,7-tetraen-10-yl}phenyl)-2,2,2-trifluoroethyl]-3-methanesulfonyl-N-methylcyclobutane-1-carboxamide]
106	145	CCN(C(=O)C1CCS(=O)(=O)CC1)[C@@H](c1ccc(N2CCCc3c2cnc2cc(Cl)nn32)cc1)C(F)(F)F [CPD0073918, N-[(1S)-1-(4-{4-chloro-2,3,7,10-tetraazatricyclo[7.4.0.0^2,6]trideca-1(9),3,5,7-tetraen-10-yl}phenyl)-2,2,2-trifluoroethyl]-N-ethyl-1,1-dioxo-1λ^6-thiane-4-carboxamide]
74	67	CC(=O)N1CCC(C(=O)N(C)[C@@H](c2ccc(N3CC[C@@H](C)c4c3cnc3cc(Cl)nn43)cc2)C(F)(F)F)CC1 [CPD0074558]
79	55	COC[C@@]1(C)CCN(c2ccc([C@H](N(C)C(=O)[C@H]3CC[S@+]([O-])CC3)C(F)(F)F)cc2)c2cnc3cc(Cl)nn3c21 (relative stereo) [CPD0073138, (1rel-r,4 rel-r)-N-[(1S)-1-[4-[(13 rel-S)-4-chloro-13-(methoxymethyl)-13-methyl-2,3,7,10-tetrazatricyclo[7.4.0.0^2,6]trideca-1(9),3,5,7-tetraen-10-yl]phenyl]-2,2,2-trifluoro-ethyl]-N-methyl-1-oxo-1λ^4-thiane-4-carboxamide]
167	267	CC(=O)N1CCC[C@H](C(=O)N(C)[C@@H](c2ccc(N3CCCc4c3cnc3cc(Cl)nn43)cc2)C(F)(F)F)C1 (relative stereo) [CPD0073500, (3rel-S)-1-acetyl-N-[(1S)-1-(4-{4-chloro-2,3,7,10-tetraazatricyclo[7.4.0.0^2,6]trideca-1(9),3,5,7-tetraen-10-yl}phenyl)-2,2,2-trifluoroethyl]-N-methylpiperidine-3-carboxamide]
67	197	CN1CC[C@H](C(=O)N(C)[C@@H](c2ccc(N3CCCc4c3cnc3cc(Cl)nn43)cc2)C(F)(F)F)CC1=O (relative stereo) [CPD0073141, (4rel-S)-N-[(1S)-1-(4-{4-chloro-2,3,7,10-tetraazatricyclo[7.4.0.0^2,6]trideca-1(9),3,5,7-tetraen-10-yl}phenyl)-2,2,2-trifluoroethyl]-N,1-dimethyl-2-oxopiperidine-4-carboxamide]
108	213	CC1CCN(c2ccc([C@H](N(C)C(=O)C3CCS(=O)(=O)CC3)C(F)(F)F)cn2)c2cnc3cc(Cl)nn3c21 (stereo partly drawn) [CPD0021812, N-[(1S)-1-(6-{4-chloro-13-methyl-2,3,7,10-tetraazatricyclo[7.4.0.0^2,6]trideca-1(9),3,5,7-tetraen-10-yl}pyridin-3-yl)-2,2,2-trifluoroethyl]-N-methyl-1,1-dioxo-1λ^6-thiane-4-carboxamide]
582	271	Cc1scnc1C(=O)N(C)[C@@H](c1ccc(N2CCCc3c2cnc2cc(Cl)nn32)cc1)C(F)(F)F [CPD0019353, N-[(1S)-1-(4-{4-chloro-2,3,7,10-tetraazatricyclo[7.4.0.0^2,6]trideca-1(9),3,5,7-tetraen-10-yl}phenyl)-2,2,2-trifluoroethyl]-N,5-dimethyl-1,3-thiazole-4-carboxamide]
68	122	CN1CC[C@@H](C(=O)N(C)[C@@H](c2ccc(N3CCCc4c3cnc3cc(Cl)nn43)cc2)C(F)(F)F)CC1=O (relative stereo) [CPD0073142, (4rel-R)-N-[(1S)-1-(4-{4-chloro-2,3,7,10-tetraazatricyclo[7.4.0.0^2,6]trideca-1(9),3,5,7-tetraen-10-yl}phenyl)-2,2,2-trifluoroethyl]-N,1-dimethyl-2-oxopiperidine-4-carboxamide]
